{"source": "paper PMC6934184", "about": "“Selective DNA-PKcs inhibition extends the therapeutic index of localized radiotherapy and chemotherapy” (The Journal of Clinical Investigation, 2019)", "target": "T1, MET (cMet) (Homo sapiens, UniProt P08581)", "T1 construct": "purchased Thermo Fisher Scientific (Life Technologies) SelectScreen", "T1 sequence (P08581 25-1390)": "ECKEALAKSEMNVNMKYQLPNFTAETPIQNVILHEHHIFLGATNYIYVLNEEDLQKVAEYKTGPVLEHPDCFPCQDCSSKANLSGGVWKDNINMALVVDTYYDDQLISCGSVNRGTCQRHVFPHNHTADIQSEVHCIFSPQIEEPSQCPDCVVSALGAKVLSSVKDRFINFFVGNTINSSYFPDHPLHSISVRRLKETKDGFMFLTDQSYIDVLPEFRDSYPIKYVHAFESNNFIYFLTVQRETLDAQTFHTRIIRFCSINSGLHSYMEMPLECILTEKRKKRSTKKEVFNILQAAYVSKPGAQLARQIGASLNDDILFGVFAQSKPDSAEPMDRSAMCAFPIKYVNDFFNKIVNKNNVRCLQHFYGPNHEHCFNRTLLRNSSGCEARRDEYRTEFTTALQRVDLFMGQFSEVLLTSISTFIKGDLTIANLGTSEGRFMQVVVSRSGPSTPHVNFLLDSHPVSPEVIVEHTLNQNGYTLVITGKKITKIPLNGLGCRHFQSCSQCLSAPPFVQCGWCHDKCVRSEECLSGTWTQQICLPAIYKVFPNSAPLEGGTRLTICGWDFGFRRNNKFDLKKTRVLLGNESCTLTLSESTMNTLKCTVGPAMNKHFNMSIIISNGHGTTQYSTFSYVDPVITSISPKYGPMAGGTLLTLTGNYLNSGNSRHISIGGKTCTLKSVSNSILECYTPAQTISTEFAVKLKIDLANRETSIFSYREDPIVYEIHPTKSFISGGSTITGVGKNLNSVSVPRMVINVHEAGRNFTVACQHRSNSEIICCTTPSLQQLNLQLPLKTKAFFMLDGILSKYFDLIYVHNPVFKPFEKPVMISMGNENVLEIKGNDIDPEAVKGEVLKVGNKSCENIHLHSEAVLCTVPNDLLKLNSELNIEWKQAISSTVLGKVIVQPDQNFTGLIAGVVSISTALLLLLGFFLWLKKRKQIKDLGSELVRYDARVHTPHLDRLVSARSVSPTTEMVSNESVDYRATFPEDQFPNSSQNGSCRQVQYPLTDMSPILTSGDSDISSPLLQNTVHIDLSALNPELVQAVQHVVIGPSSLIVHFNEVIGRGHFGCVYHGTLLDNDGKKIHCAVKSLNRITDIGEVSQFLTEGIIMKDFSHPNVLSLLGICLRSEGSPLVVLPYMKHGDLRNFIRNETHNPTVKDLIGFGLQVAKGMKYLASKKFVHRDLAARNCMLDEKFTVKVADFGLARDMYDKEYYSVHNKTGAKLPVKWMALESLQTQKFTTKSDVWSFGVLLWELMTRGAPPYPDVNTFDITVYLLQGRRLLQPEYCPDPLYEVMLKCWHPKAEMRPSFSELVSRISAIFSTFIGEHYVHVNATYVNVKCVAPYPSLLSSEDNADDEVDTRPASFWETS", "experiment": "SelectScreen Z'LYTE", "type": "biochemical", "summary_of_the_method": "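NU5455 was profiled across the SelectScreen Broad panel of kinase activity and binding assays. Z'LYTE reactions such as CSF1R ran at apparent Km ATP, while the Adapta CAMK1 assay used ATP listed as 10. Values are given as percent.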"}
{"smiles": "CN(C(=O)CN1CCOCC1)c1ccc2sc3c(-c4cccc5c(=O)cc(N6CC7CCC(C6)O7)oc45)cccc3c2c1", "note": "[NU5455]", "values": [{"measurement": "inhibition at 1 µM", "result": -15.1, "unit": "%"}]}
